We go through five compounds from patent publication US8114645B2 (priority 2006, dated 2012).

Where two headings read alike, the source gives them in different places.

The test system of series [1] is E. coli strains carrying a temperature sensitive fabD allele. Particulars: Harder et al. 1972, 1974; cited from earlier work.
The subject of series [2] is E. coli DP10 containing pBad33MevT, pHMGS or inactive controls. The series can be described thus: Cell growth with increased supplementation of saturated fatty acid 16:0, baffled shake flasks, OD600. The class given is cell-based.
Series [3] concerns E. coli DP10 expressing MevT gene constructs. The series can be described thus: Fatty acid supplementation of growth inhibited cells, 96-well plates, OD. The class given is cell-based. Conditions: 100 μg/ml fatty acid with 400 μg/ml Brij, defined C medium, 96-well plate, arabinose induced; for growth of MevT expressing cells (pBad33MevT): E. coli DP10 pBad33MevT; for growth of cells containing pHMGS: E. coli DP10 pHMGS. The protocol:
Media components and chemicals were purchased from Sigma-Aldrich (St. Louis, Mo.) and Fisher Scientific (Pittsburgh, Pa.). For cloning and propagation of E. coli strains harboring the various recombinant pathways, Luria broth with Miller's modification (Sigma) was used with appropriate antibiotics for plasmid selection and 0.06% glucose for the repression of PBAD and PLAC promoter systems. DL-mevalonate used for media supplementation was prepared by mixing 1 volume of 2 M DL-mevalonic acid lactone (Sigma-Aldrich) with 1.02 volumes of 2 M KOH and incubating at 37° C. for 30 min. Campos et al. (2001) Biochem J 353, 59-67. […] Enzymes for molecular biology were purchased from New England Biolabs (Beverly, Mass.) and Invitrogen. E. coli strains TOP 10 and DH10B, both from Invitrogen, were used for cloning and plasmid construction.
The optical density of samples taken from cultures in baffled flasks was measured using a UV-Spectrophotometer (Beckman), while the OD600 of cultures in 96-well microtiter plates was measured using a microtiter plate reader (SpectraMax, Molecular Devices).
E. coli DP10 cells harboring pBad33, pBad33MevT, pMevT(C159A), pHMGS, or pHMGSR were incubated and induced in 96-well plates in fully defined C medium containing 50 μg/ml chloramphenicol (see material and methods) with supplemental cis-Δ^9-18:1, 16:0, cis-Δ^9-16:1, or a equal mass mixture of 16:0 and cis-Δ^9-16:1. […] Overnight starter cultures were used to inoculate fresh C medium in a 96-well microtiter plate.

The test system of series [4] is E. coli DH10B harboring pBad33MevT or pBad33. Conditions: LB with 10 g/L NaCl vs 0.5 g/L NaCl.
Experimental: To further test if cells inhibited by the accumulation of HMG-CoA are suffering from osmotic stress, cells harboring pBad33MevT or pBad33 (the empty vector control) were incubated and induced in Luria Broth (LB) media with low (0.5 g/L) and high (10 g/L) concentrations of NaCl. […] Both culture media were supplemented with 1% (wt/vol) glycerol and 50 μg/ml chloramphenicol. Starter cultures of DH10B harboring either pBad33MevT or pBad33 were inoculated from single colonies and incubated overnight at 37° C. in LB media supplemented with 0.06% glucose (to repress the PBAD promoter) and chloramphenicol. Overnight starter cultures were diluted to an OD600 of 0.05 in either the low or high NaCl media in baffled shake flasks, incubated at 37° C. with continuous shaking and induced with the addition of 2 mM arabinose at an OD600 of approximately 0.39. The optical density of the culture was measured using a UV-Spectrophotometer (Beckman).
The subject of series [5] is temperature sensitive mutants of fabB. Particulars: Broekman and Steenbakkers 1973; cited from earlier work.
The test system of the next series is E. coli. As to the kind of experiment: Effect of extra-cellular mevalonate on growth of E. coli. The class given is cell-based. Particulars: high extra-cellular concentrations.
For series [6], the system named is E. coli DH10B containing plasmids pMevT, pMBIS, and pADS. As to the kind of experiment: Amorpha-4,11-diene production assay with mevalonate supplementation (GC-MS of dodecane overlay). The class given is cell-based. Conditions: exogenous mevalonate added, tested up to 20 mM D,L-mevalonate; vs no supplementation. Here is the method: Amorpha-4,11-diene production from E. coli strains expressing the full heterologous mevalonate pathway and amorphadiene synthase with or […] supplementation was assayed. E. coli DH10B containing plasmids pMevT, pMBIS, and pADS (FIGS. 5A and 5B) were grown in C medium containing 3.4% glycerol, 1% Casamino acids (BD, Franklin Lakes, N.J.), micronutrients, 50 μg/ml carbenicillin, 5 μg/ml tetracycline, and 25 μg/ml chloramphenicol with varying concentrations of exogenous mevalonate. […] Prior to inoculation, an overlay of 20% (v/v) dodecane (Sigma) was added to each culture flask to trap the volatile sesquiterpene product. […]
Dodecane/ethyl acetate extracts were analyzed on a Hewlett-Packard 6890 gas chromatograph-mass spectrometer (GC/MS). […] The resolved samples were analyzed by a Hewlett-Packard model 5973 mass selective detector that monitored ions 189 and 204 m/z. […] Since pure standards of amorpha-4,11-diene are not currently available, the concentrations were quantified in terms of caryophyllene equivalents. A standard curve for caryophyllene was determined, based on a pure standard. […]
To begin improving terpenoid production from engineered E. coli, limiting steps in the engineered pathway to amorphadiene were determined, as described in U.S. Pat. No. 7,183,089, U.S. Provisional Patent Application No. 60/802,266, Pitera et al. Metab Eng 9(2): 193-207 (2007), and as follows. […]

As for `CCCCCCCCCCCCCCCC(=O)O` [16:0, palmitic acid (hexadecanoic acid)], the “growth at non-permissive temperatures” value in series [1] is “shown to grow at non-permissive temperatures”. Besides, in series [2] (200 μg/ml vs 100 μg/ml, baffled shake flasks), the “cell growth on increasing the concentration above 100 μg/ml” value was “no additional effect on cell growth”. Besides, the “cell growth of the inactive pathway controls” value in series [2] (DP10 harboring pMevT(C159A) or pHMGS(C159A), 100 or 200 μg/ml) is listed as “not affected”. In addition, the “growth inhibition caused by high expression of the MevT operon” value in series [2] (E. coli DP10 pBad33MevT, 100 μg/ml with 400 μg/ml Brij, baffled shake flasks) was “completely alleviated the growth inhibition”. For the same compound, the “growth of cells expressing HMGS alone” value in series [2] (E. coli DP10 pHMGS, 100 μg/ml with 400 μg/ml Brij, baffled shake flasks) was “only improving the growth”. Moreover, in series [3], the “growth of MevT expressing cells (pBad33MevT)” value (“growth … (pBad33MevT)” for short) is recorded as “improved the growth” and the “growth of cells containing pHMGS” value is “clear, positive effect on the growth”.

In the case of `[Cl-].[Na+]` [NaCl], in series [4] (DH10B containing pBad33), the “growth of the empty vector control strain” value is reported as “did not significantly affect”. Further, the “growth inhibition of E. coli cells expressing the MevT operon from pBad33MevT” value in series [4] (DH10B, 2 mM arabinose) is “effectively alleviated the growth inhibition”. In addition, the “osmolality of the culture medium” value is reported as “about 125 mOsm/kg H2O” (culture medium containing NaCl at 0.5 g/L) and “about 452 mOsm/kg H2O” (culture medium containing NaCl at 10 g/L).

For `CCCCCC/C=C\CCCCCCCC(=O)O` [cis-Δ^9-16:1, palmitoleic acid], the “growth at non-permissive temperatures” value in series [1] was “not”. In addition, in series [3], the “growth … (pBad33MevT)” value is listed as “detrimental to the growth” and the “growth of cells containing pHMGS” value is reported as “detrimental to the growth”.

As to `CCCCCCCC/C=C\CCCCCCCC(=O)O` [cis-Δ^9-18:1, oleic acid], the “growth under non-permissive conditions” value in series [5] was “can grow”. In addition, in series [3], the “growth … (pBad33MevT)” value was “to a lesser extent, cis-Δ^9-18:1 improved the growth”.

For the compound `CC(O)(CCO)CC(=O)O` (stereo not drawn) [mevalonate], the “growth of E. coli” value in the series with E. coli is “no significant effect on the growth”. For the same compound, in series [6], the production of amorphadiene entry is listed as “increased the production of amorphadiene”.
